The values below come from publication PMC9502272, “A Metabolomics Approach for Predicting OATP1B-Type Transporter-Mediated Drug–Drug Interaction Liabilities” (Pharmaceutics, 2022).

The data set has as its target T1, Oatp1b2 (Mus musculus, UniProt Q9JJL3).
T1 sequence (Q9JJL3 1-689): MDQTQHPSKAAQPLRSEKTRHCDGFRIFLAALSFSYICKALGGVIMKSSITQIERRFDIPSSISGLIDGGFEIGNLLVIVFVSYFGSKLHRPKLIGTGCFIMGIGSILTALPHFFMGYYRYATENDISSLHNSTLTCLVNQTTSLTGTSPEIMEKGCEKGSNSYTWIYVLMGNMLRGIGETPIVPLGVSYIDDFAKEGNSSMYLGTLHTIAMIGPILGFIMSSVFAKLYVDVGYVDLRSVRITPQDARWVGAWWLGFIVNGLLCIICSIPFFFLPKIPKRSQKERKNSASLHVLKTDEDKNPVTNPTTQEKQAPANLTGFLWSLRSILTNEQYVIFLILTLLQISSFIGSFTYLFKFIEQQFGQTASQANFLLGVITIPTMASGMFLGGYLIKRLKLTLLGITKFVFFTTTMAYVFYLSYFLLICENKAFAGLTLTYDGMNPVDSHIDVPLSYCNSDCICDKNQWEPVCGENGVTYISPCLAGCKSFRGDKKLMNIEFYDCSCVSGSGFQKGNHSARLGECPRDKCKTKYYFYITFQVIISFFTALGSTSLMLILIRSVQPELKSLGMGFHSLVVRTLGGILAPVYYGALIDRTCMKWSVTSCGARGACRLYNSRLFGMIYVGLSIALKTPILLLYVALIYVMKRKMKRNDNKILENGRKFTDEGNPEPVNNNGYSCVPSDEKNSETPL
As to the kind of experiment: Untargeted metabolomics of plasma from untreated wild-type and Oatp1b2(−/−) mice. The following applies: for Fold of Change KO/WT: plasma of untreated Oatp1b2-deficient (KO) vs wild-type (WT) mice, semi-quantitative, positive = higher in KO, n = 6 per group; for Mean value KO: plasma of untreated Oatp1b2-deficient mice; for Mean value KO / Mean value WT: raw area counts rescaled to median = 1; for Mean value WT: plasma of untreated wild-type mice.

As for `CCCCCCCC/C=C\CCCCCCCC(=O)OC[C@@H](O)COP(=O)(O)OCCN` [1-oleoyl-GPE (18:1)], the “Fold of Change KO/WT” value is listed as 2.05, the “Mean value KO” value stood at 1.30 and the “Mean value WT” value is listed as “.634”.

`CCCCCCCC/C=C\CCCCCCCC(=O)OCC(O)COP(=O)(O)OCC(O)CO` (stereo not drawn) [1-oleoyl-GPG (18:1)]: the “Fold of Change KO/WT” value worked out at 8.19, the “Mean value KO” value was determined as 1.80 and the “Mean value WT” value was “.219”.

As to `CCCCCCCC/C=C\CCCCCCCC(=O)OC[C@@H](O)COP(=O)(O)OC1[C@H](O)[C@H](O)C(O)[C@H](O)[C@H]1O` (stereo partly drawn) [1-oleoyl-GPI (18:1)], the “Fold of Change KO/WT” value came to 1.87, the “Mean value KO” value is on record as 1.36 and the “Mean value WT” value is reported as “.729”.

Turning to `CC/C=C\C/C=C\C/C=C\CCCCCCCC(=O)O[C@H](COC(=O)CCCCCCC/C=C\CCCCCC)COP(=O)([O-])OCC[N+](C)(C)C` [1-palmitoleoyl-2-linolenoyl-GPC (16:1/18:3)], the “Fold of Change KO/WT” value is recorded as 1.86, the “Mean value KO” value is 1.46 and the “Mean value WT” value is reported as “.784”.

Regarding `CCCCCC/C=C\CCCCCCCC(=O)OC[C@@H](O)COP(=O)([O-])OCC[N+](C)(C)C` [1-palmitoleoyl-GPC (16:1)], the “Fold of Change KO/WT” value amounted to 1.97, the “Mean value KO” value amounted to 1.31 and the “Mean value WT” value is on record as “.666”.

`CCCCCCCC/C=C\CCCCCCCC(=O)O[C@H](COC(=O)CCCCCCCCCCCCCCC)COP(=O)([O-])OCC[N+](C)(C)C` [1-palmitoyl-2-oleoyl-GPC (16:0/18:1)]: the “Fold of Change KO/WT” value is on record as 1.30, the “Mean value KO” value was 1.08 and the “Mean value WT” value is reported as “.834”.

For the molecule `CCCCCCCC/C=C\CCCCCCCC(=O)O[C@H](COC(=O)CCCCCCCCCCCCCCC)COP(=O)(O)OCCN` [1-palmitoyl-2-oleoyl-GPE (16:0/18:1)], the “Fold of Change KO/WT” value turned out to be 1.46, the “Mean value KO” value is given as 1.24 and the “Mean value WT” value is recorded as “.847”.

For `CCCCCCCCCCCCCCCCCC(=O)O[C@H](COC(=O)CCCCCCCCCCCCCCC)COP(=O)([O-])OCC[N+](C)(C)C` [1-palmitoyl-2-stearoyl-GPC (16:0/18:0)], the “Fold of Change KO/WT” value is on record as 1.14, the “Mean value KO” value is recorded as 1.09 and the “Mean value WT” value is on record as “.960”.

As for `CCCCCCCCCCCCCCCC(=O)OC[C@@H](O)COP(=O)([O-])OCC[N+](C)(C)C` [1-palmitoyl-GPC (16:0)], the “Fold of Change KO/WT” value is 1.29, the “Mean value KO” value came to 1.12 and the “Mean value WT” value is given as “.868”.

With `CCCCCCCCCCCCCCCC(=O)OC[C@@H](O)COP(=O)(O)OCCN` [1-palmitoyl-GPE (16:0)], the “Fold of Change KO/WT” value came to 1.73, the “Mean value KO” value came out at 1.33 and the “Mean value WT” value was “.765”.

Take `CCCCCCCCCCCCCCCC(=O)OC[C@@H](O)COP(=O)(O)OCC(O)CO` (stereo partly drawn) [1-palmitoyl-GPG (16:0)]: the “Fold of Change KO/WT” value came out at 5.40, the “Mean value KO” value is 2.00 and the “Mean value WT” value was “.371”.

For `O=C(O)Cc1cn(C2O[C@H](CO)[C@@H](O)[C@H]2O)cn1` (stereo partly drawn) [1-ribosyl-imidazoleacetate], the “Fold of Change KO/WT” value is 1.64, the “Mean value KO” value is 1.34 and the “Mean value WT” value was “.818”.

`CCCCCCCC/C=C\CCCCCCCC(=O)O[C@H](COC(=O)CCCCCCCCCCCCCCCCC)COP(=O)([O-])OCC[N+](C)(C)C` [1-stearoyl-2-oleoyl-GPC (18:0/18:1)]: the “Fold of Change KO/WT” value came out at 1.20, the “Mean value KO” value is on record as 1.07 and the “Mean value WT” value is “.892”.

For `CCCCCCCCCCCCCCCCCC(=O)OC[C@@H](O)COP(=O)(O)OCCN` [1-stearoyl-GPE (18:0)], the “Fold of Change KO/WT” value was 1.34, the “Mean value KO” value worked out at 1.16 and the “Mean value WT” value is “.867”.
